Numbers after ± are expanded uncertainties.
Experiments:
[1] = refractive index (Na D-line) (dimensionless); conditions: 101.33 kPa, Liquid, Standard Abbe refractometry
[2] = 101.33 kPa, Liquid; for viscosity: Cone and plate viscometry; for mass density: Vibrating tube method; for electrical conductivity: conductivity meter (DDJS-308A)

C[N+](C)(C)CCO.NCC(=O)[O-] [2-hydroxy-N,N,N-trimethylethanaminium glycinate]
Conditions | electrical conductivity, [2] [S/m] | mass density, [2] [kg/m3] | refractive index, [1] | viscosity, [2] [mPa·s]
293.15 K | – | – | 1.5238 ± 0.0011 | –
298.15 K | 0.00677 ± 0.00021 | 1145.2 ± 2 | 1.5224 ± 0.0011 | 182.3 ± 21
303.15 K | 0.0104 ± 0.00031 | 1142.31 ± 2 | 1.5213 ± 0.0011 | 119.9 ± 13
308.15 K | 0.0147 ± 0.00044 | 1139.43 ± 2 | 1.5204 ± 0.0011 | 84.3 ± 9.3
313.15 K | 0.022 ± 0.00066 | 1136.7 ± 2 | 1.5194 ± 0.0011 | 50.2 ± 5.6
318.15 K | 0.0292 ± 0.00088 | 1133.97 ± 2 | 1.5182 ± 0.0011 | 29.4 ± 3.3
323.15 K | 0.0388 ± 0.0012 | 1131.22 ± 2 | 1.5171 ± 0.0011 | 19.9 ± 2.2
328.15 K | 0.0497 ± 0.0015 | 1128.46 ± 2 | 1.5158 ± 0.0011 | 14.3 ± 1.6
333.15 K | 0.0609 ± 0.0018 | 1125.7 ± 2 | 1.5148 ± 0.0011 | 10.4 ± 1.1
338.15 K | 0.0781 ± 0.0024 | 1122.93 ± 2 | 1.5137 ± 0.0011 | 7.2 ± 0.8
343.15 K | 0.0993 ± 0.003 | 1120.22 ± 2 | 1.5125 ± 0.0011 | 5.5 ± 0.6
348.15 K | 0.122 ± 0.0037 | 1117.53 ± 2 | – | 4.3 ± 0.5
353.15 K | 0.15 ± 0.0045 | 1114.83 ± 2 | – | 3.5 ± 0.4

C[N+](C)(C)CCO.NCCC(=O)[O-] [2-hydroxy-N,N,N-trimethylethanaminium β-alaninate]
Conditions | electrical conductivity, [2] [S/m] | mass density, [2] [kg/m3] | refractive index, [1] | viscosity, [2] [mPa·s]
293.15 K | – | – | 1.5322 ± 0.0011 | –
298.15 K | 0.00071 ± 2e-05 | 1120.29 ± 2 | 1.5313 ± 0.0011 | 5092.1 ± 710
303.15 K | 0.00143 ± 4e-05 | 1117.51 ± 2 | 1.5306 ± 0.0011 | 3022.2 ± 400
308.15 K | 0.00268 ± 8e-05 | 1114.55 ± 2 | 1.5294 ± 0.0011 | 1820.4 ± 230
313.15 K | 0.00494 ± 0.00015 | 1111.77 ± 2 | 1.5285 ± 0.0011 | 1146.2 ± 140
318.15 K | 0.00907 ± 0.00027 | 1108.98 ± 2 | 1.5277 ± 0.0011 | 723.2 ± 88
323.15 K | 0.0134 ± 0.0004 | 1106.2 ± 2 | 1.5266 ± 0.0011 | 470.7 ± 56
328.15 K | 0.0178 ± 0.00053 | 1103.43 ± 2 | 1.526 ± 0.0011 | 322.4 ± 37
333.15 K | 0.0227 ± 0.00068 | 1100.63 ± 2 | 1.5249 ± 0.0011 | 220.7 ± 25
338.15 K | 0.0295 ± 0.00089 | 1097.83 ± 2 | 1.5238 ± 0.0011 | 155.9 ± 18
343.15 K | 0.0379 ± 0.0011 | 1095.04 ± 2 | 1.5225 ± 0.0011 | 112 ± 12
348.15 K | 0.0496 ± 0.0015 | 1092.32 ± 2 | – | 79.3 ± 8.8
353.15 K | 0.0615 ± 0.0019 | 1089.6 ± 2 | – | 56.7 ± 6.3

Reference: the NIST ThermoML archive (doi:10.1021/je301103d)
